Several values for one entry are separate records, joined by “and”; a condition that tells them apart may be missing. Equal entries are not always repeated.
Assays:
[1] = target: T1, Aβ(1-40) (Homo sapiens, UniProt P05067); experiment: BASSR (Beta-Amyloid Self-Seeding Radioassay), inhibitors of self-seeded amyloid fibril growth; type: biochemical; details: 30 μM soluble Aβ(1-40) + 125I-labeled Aβ(1-40), pH 7.5, 37° C., 3 to 5 hours, filtration
T1 construct: Soluble Aβ(1-40) peptide (Bachem, Torrance, Calif.); purchased Bachem, Torrance, Calif
T1 sequence (P05067 672-711 limits assumed): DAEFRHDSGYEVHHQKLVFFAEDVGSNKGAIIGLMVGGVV
Procedure: BASSR (Beta-Amyloid Self-Seeding Radioassay)
(§1) An assay for inhibitors of self-seeded amyloid fibril growth
Assay Buffer—50 mM sodium phosphate, pH 7.5, 100 mM NaCl, 0.02% NaN3, 1 M urea (filter and store at 4° C.)
Soluble Aβ(1-40) peptide (Bachem, Torrance, Calif.)—2.2 mg/mL in deionized H2O (stored in aliquots at −20° C., keep on ice when thawed) will self-seed after 1 week storage. Typically, the solution should be stored until no lag phase is seen in the assay.
^125I-labeled Aβ(1-40)—150K-350K cpm/μL in 100% acetonitrile—0.1% trifluoroacetic acid (TFA)—1% β-mercaptoethanol (aliquots stored at −20° C.). ^125I-labeled Aβ(1-40) can be made in accordance with the procedure set forth by H. Levine, III in Neurobiol. Aging, 16:755 (1995), which is hereby incorporated by reference, or this reagent may be purchased from Amersham, Arlington Heights, Ill.
Final assay conditions: 30 μM soluble Aβ(1-40) in deionized water in assay buffer+20-50K cpm ^125I-labeled Aβ(1-40) per assay. Compound to be tested is dissolved in dimethylsulfoxide (DMSO), typically 5-50 mM stock, such that the final concentration of DMSO is <1% v/v in the assay.
Assay: Reaction mixture for 50 assays (on ice) is comprised of 0.1-0.2 μL of […] ^125I-labeled Aβ(1-40)+1 μL of soluble Aβ(1-40)+13.5 μL assay buffer per assay. The following are the amounts of the components of the reaction mixture sufficient for 50 assay wells.
1) Prepare reaction mixture above by mixing components and storing on ice.
2) Pipet 14.5 μL of reaction mixture into each of 50 wells on a polypropylene U-bottom 96-well microtiter plate on ice (Costar 3794).
(§2) 3) Add 1.7 μL of diluted compound to be tested to each well in a column of eight, including solvent control. Serial 3-fold dilutions from 1 mM (100 μM final) in assay buffer−urea=7 dilutions+zero. Each 96-well plate can therefore accommodate 11 samples+1 Congo Red control (0.039-5 μM final in 2-fold steps).
4) Seal the plate with aluminum film (Beckman 538619) and incubate for 10 minutes on ice.
5) Raise the temperature to 37° C. and incubate for 3 to 5 hours (depending on the lot of the peptide).
6) Remove the aluminum film and add 200 μL/well of ice cold assay buffer with urea, collecting the radiolabeled fibrils by vacuum filtration through 0.2 μm pore size GVWP filters in 96-well plates (Millipore MAGV N22, Bedford, Mass.). Determine the radioactivity of the filters using standard methods well-known to those skilled in the art.

[2] = target: T1, Aβ(1-40); experiment: BASST (Beta-Amyloid Self-Seeding, ThioflavinT), inhibitors of self-seeded amyloid fibril growth; type: biochemical; details: 30 μM soluble Aβ(1-40), pH 7.5, 37° C., 3 to 5 hours, thioflavin T fluorescence
Procedure: BASST (Beta-Amyloid Self-Seeding, ThioflavinT)
as §1
Assay Buffer—50 mM sodium phosphate, pH 7.5, 100 mM NaCl, 0.02% NaN3, 1 M urea (filter and store at 4° C.).
Soluble Aβ(1-40)—2.2 mg/mL in deionized H2O (store in aliquots at −20° C., keep on ice when thawed) will self-seed after 1 week storage. Typically, the solution should be stored until no lag phase is seen in the assay.
Final assay conditions: 30 μM soluble Aβ(1-40) in deionized water in assay buffer. Compound to be tested is dissolved in DMSO, typically 5-50 mM stock, such that the final concentration of DMSO is <1% v/v in the assay.
Assay: Reaction mixture for 50 assays (on ice) comprised of 1 μL of soluble Aβ(1-40)+13.5 μL assay buffer per assay. The following are the amounts of the components of the reaction mixture that result in each of the 50 assay wells.
1) Prepare the reaction mix above by mixing the components and storing on ice.
2) Pipet […] of reaction mixture into each of 50 wells of a polystyrene U-bottom 96-well microtiter plate (Corning 25881-96) on ice.
as §2, with “[…]” for “μL”
4) Seal the plate with aluminum film and incubate for 10 minutes on ice.
5) Raise the temperature to 37° C. and incubate for 3 to 5 hours (depends on the lot of the peptide).
6) Remove the aluminum film and add 250 μL/well of 5 μM thioflavin T (ThT) [T-3516, Sigma-Aldrich] in 50 mM glycine-NaOH, pH 8.5. Read fluorescence on a plate reader (ex=440 nm/20 nm; em=485 nm/20 nm) within 5 minutes.

[3] = target: T2, Aβ(1-42) (Homo sapiens, UniProt P05067); experiment: BATYM Assay (Aβ(1-42) aggregation, Thioflavin T fluorescence); type: biochemical; details: Aβ 1-42 final concentration 100 μM, PBS pH 7.4, 37° C., 1 day, ThT fluorescence
T2 construct: Required Aβ(1-42)(California Peptide) was dried from its hexafluoroisopropanol (HFIP) stock solution; purchased California Peptide
T2 sequence (P05067 672-713 limits assumed): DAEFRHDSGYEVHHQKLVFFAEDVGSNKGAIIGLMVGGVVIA
Procedure: Required Aβ(1-42)(California Peptide) was dried from its hexafluoroisopropanol (HFIP) stock solution. The Aβ(1-42) was dissolved in dimethylsulfoxide (DMSO) and then mixed with phosphate buffered saline, (PBS) (pH 7.4). The mixed Aβ(1-42) solution was filtered with a 0.2 μm Omnipore membrane syringe filter (Millipore, Bedford, Mass.). The compound to be tested in DMSO (50 times concentrate) was put into each well (0.5 μL/well) of a 96-well plate. The Aβ(1-42) solution was added into each well (24.5 μL/well). The plate was centrifuged at 1,000 g for 5 minutes and incubated at 37° C. for 1 day (Aβ 1-42; final concentration 100 μM).
After incubation Thioflavin T (ThT) (30 μM) solution in glycine-NaOH buffer (pH 8.5, 50 mM) was added into each well (250 μL/well), fluorescence was measured (ex. 440/20 nm; em 485/20 nm) using a fluorescence plate reader. The inhibitory activity was calculated as the reduction of fluorescence with the following formula:
inhibition (%)={(F(Aβ)−F(Aβ+compound)}/{F(Aβ)−F(solvent+compound)}×100
The IC50s were calculated by a curve fitting program using the following equation. The data were obtained from two different experiments in triplicate.
x=concentration of tested compound (M),

[4] = target: T3, beta amyloid peptide Aβ(1-40) (Homo sapiens, UniProt P05067); experiment: BAPA (Beta-Amyloid Peptide Aggregation), pH 6.0; type: biochemical; details: Aβ(1-40) 33 μM, pH 6.0, 2 to 4 hours at room temperature, filtration
T3 construct: 0.5 mg/mL AP (140) peptide in 20% HFIP+0.1 μL/assay radioiodinated ^125I Aβ(1-40)
T3 sequence (P05067 672-711 limits assumed): as the sequence (P05067 672-711 limits assumed) above
Procedure: BAPA (Beta-Amyloid Peptide Aggregation)
This assay is used to provide a measure of inhibition by a compound against the aggregation behavior of the beta amyloid peptide.
The purpose of this assay is to provide a higher volume method of assaying the amount of beta amyloid aggregation using an endpoint assay based on filtration. In this assay, hexafluoroisopropanol (HFIP) is used to break down the initial amyloid peptide to a monomer state and use a concentration of 33 μM which is high enough so that aggregation will occur at pH 6.0 in several hours.
β-Amyloid Peptide Aggregation, pH 6.0 (BAPA)
In a 96-well plate (Costar 3794), we add […] 50 mM Phosphate Buffer, pH 6.0, 10 μL 0.5 mg/mL AP (140) peptide in 20% HFIP+0.1 μL/assay radioiodinated ^125I Aβ(1-40) [^125I Aβ(1-40)], and 1 μL of the compound to be tested starting at 50 mM with a concentration of DMSO <1%. Then, we incubate for 2 to 4 hours at room temperature. We stop the reaction with […] of 50 mM phosphate buffer, pH 6.0, and filter it through a 0.2 μm 96-well filter plate (Millipore MAGU N22). We wash the filter plate with 100 μL of the same phosphate buffer. Aggregation was detected on a Microbeta counter after impregnating the filters with Meltilex (1450-441) and is corrected for background.

| Structure (SMILES) | IC50 [1] | IC50 [2] | IC50 [3] [µM] | IC50 [4] [µM] | melting point [°C] |
| --- | --- | --- | --- | --- | --- |
| CCCCN(CCCC)c1ccc(/C=C2\SC(=S)N(Cc3cc(=O)c(O)co3)C2=O)cc1 [Example 33, (Z) 5-(4-Dibutylamino-benzylidene)-3-(5-hydroxy-4-oxo-4H-pyran-2-ylmethyl)-2-thioxo-thiazolidin-4-one] | > 100 µM | 2 µM | 3.03 | > 60 | 226 to 227 |
| CCCCCN(CCCCC)c1ccc(/C=C2\SC(=S)N(CC(=O)NS(=O)(=O)C(F)(F)F)C2=O)cc1 [Example 8, (Z) N-{5-[4-(Dipentylamino-benzylidene)-4-oxo-2-thioxo-thiazolidin-3-yl]-acetyl}-C,C,C-trifluoro-methanesulfonamide] | > 100 µM | 1 µM | 1.96 | 2.5 | 286 to 288 |
| CCCCCN(CCCCC)c1ccc(/C=C2\SC(=S)N(Cc3nnn[nH]3)C2=O)cc1 [Example 17] | 10 µM and 5 µM | 1 µM and 1.5 µM | 1.87 | 2 | 208 to 210 |
| CCCCCCN(C)c1ccc(/C=C2\SC(=S)N(CCNS(=O)(=O)c3ccccc3)C2=O)cc1 [Example 11, (Z) N(2-{5-[4-(Hexyl-methyl-amino)benzylidene]-4-oxo-2-thioxo-thiazolidin-3-yl}-ethyl)-benzenesulfonamide] | > 100 µM | 9 µM | 2.19 | 25 | 152 to 155 |
| O=C(NS(=O)(=O)CCN1C(=O)/C(=C/c2ccc(N3CCC4CCCCC4C3)cc2)SC1=S)c1ccccc1 (stereo not shown) [Example 29, (Z) 2-{5-[4-(Octahydro-isoquinolin-2-yl)-benzylidene]-4-oxo-2-thioxo-thiazolidin-3-yl}-ethanesulfonic acid benzoylamide] | 11 µM | 0.6 µM | 3.42 | > 100 | 213 |
| CCCCCCN(C)c1ccc(/C=C2\SC(=S)N(CCS(=O)(=O)NC)C2=O)cc1 [Example 2, (Z) 2-{5-[4-(Hexyl-methyl-amino)-benzylidene]-4-oxo-2-thioxo-thiazolidin-3-yl}-ethanesulfonic acid methylamide] | > 100 µM | 0.8 µM | 2.32 | 7 | 147 to 149 |
| CCCCCCN(C)c1ccc(/C=C2\SC(=S)N(CC(=O)NS(=O)(=O)c3ccccc3)C2=O)cc1 [Example 9, (Z) N-({5-[4-(Hexyl-methyl-amino)benzylidene]-4-oxo-2-thioxo-thiazolidin-3-yl}-acetyl)benzenesulfonamide] | > 100 µM | 1.75 µM | 2.15 | 4 | 173 to 177 |
| CCCCCCN(C)c1ccc(/C=C2\SC(=S)N(Cc3nnn[nH]3)C2=O)cc1 [Example 16, (Z) 5-[4-(Hexyl-methyl-amino)benzylidene]-3-(1H-tetrazol-5-ylmethyl)-2-thioxo-thiazolidin-4-one] | 7 µM | 3 µM | 1.94 | 38 | 198 to 200 |
| CCCCCCN(C)c1ccc(/C=C2\SC(=S)N(CCNC(=O)C(F)(F)F)C2=O)cc1 [Example 13, (Z) 2,2,2-Trifluoro-N-(2-{5-[4(hexyl-methyl-amino)benzylidene]-4-oxo-2-thioxo-thiazolidin-3-yl}-ethyl)-acetamide] | > 100 µM | 10 µM | 3.5 | 28 | 136 to 139 |
| O=C(CN1C(=O)/C(=C/c2ccc(N3CC[C@@H]4CCCC[C@H]4C3)cc2)SC1=S)NS(=O)(=O)c1ccc(F)cc1 [Example 38, (Z) 4-Fluoro-N-(2-{5-[(4aS,8aR)-4-(octahydro-isoquinolin-2-yl)-benzylidene]-4-oxo-2-thioxo-thiazolidin-3-yl}-acetyl)-benzenesulfonamide] | 10 µM and 5 µM | 0.7 µM and 0.1 µM | 2.54 | 66 | 220 to 221 |
| CCCC1CCN(c2ccc(/C=C3\SC(=S)N(CC(=O)NS(C)(=O)=O)C3=O)cc2)CC1 [Example 37, (Z) N-(2-{4-Oxo-5-[4-(4-propyl-piperidin-1-yl)-benzylidene]-2-thioxo-thiazolidin-3-yl}-acetyl)methanesulfonamide] | 50 µM | 0.4 µM | 3.83 | > 60 | 254 |

— patent US20040197268A1, “Method of imaging amyloid deposits using substituted rhodanine derivatives” (priority 1999, published 2004)
